Data taken from patent US11434258B2, “Compounds (immunorhelins)” (ISR IMMUNE SYSTEM REGULATION HOLDING AB (PUBL), priority 2017, dated 2022).
Non-standard residues stand in square brackets, D forms with d. Residues, ends and D or L forms follow the SMILES beside them. *: point of attachment. dHis(τ-Bn) = N[C@H](Cc1cn(Cc2ccccc2)cn1)C(=O)O; d2Nal = N[C@H](Cc1ccc2ccccc2c1)C(=O)O; pGlu = O=C1CC[C@@H](C(=O)O)N1; tBu = CC(C)(C)*

Columns and labels:
[1] = Solubility in PBS (LC/UV AUC trend); conditions: PBS pH 7.4, 0.2 mg/ml; rating 1 (good) to 5 (poor)
[2] = Stability in aqueous media (PBS pH 7.4); format: physicochemical; parameters: unit not given here; conditions: phosphate buffer solution (PBS); PBS pH 7.4, 37° C., samples at T=0, 4, 24, 96 h; read-out: Stability grading (t1/2)
Excerpt: LC/MS data was collected for compound identity.

GnRHR = target: T1, GnRHR (Homo sapiens, UniProt P30968); experiment: Calcium assay in CHO-K1 cells (Genscript), FLIPR; format: cell-based; conditions: CHO-K1/GnRHR/Ga15 cells, relative to agonist control, read-out: GNRHR Stimulation at 1 μM
T1 construct: host or cells: CHO-K1 (CHO-K1/GnRHR/Ga15)
T1 sequence (P30968 1-328): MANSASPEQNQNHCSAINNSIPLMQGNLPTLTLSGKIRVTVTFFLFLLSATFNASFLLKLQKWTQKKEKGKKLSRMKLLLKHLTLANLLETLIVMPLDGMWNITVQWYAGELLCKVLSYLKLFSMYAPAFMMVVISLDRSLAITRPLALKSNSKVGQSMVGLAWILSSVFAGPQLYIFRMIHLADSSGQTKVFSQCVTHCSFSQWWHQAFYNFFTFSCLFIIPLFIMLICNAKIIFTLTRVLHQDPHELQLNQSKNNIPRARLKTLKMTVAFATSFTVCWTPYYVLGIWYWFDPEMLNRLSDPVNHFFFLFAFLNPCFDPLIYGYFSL
Description: Test article sample solutions were dissolved in HBSS buffer (with 20 mM HEPES buffer, pH 7.4) to form the 5× working solution. FLIPR® Calcium 4 assay kit from Molecular devices (R8141) was used as required. In brief, CHO-K1 cells expressing GnRHR (CHO-K1/GnRHR/Ga15, Genscript accession NM_000406) were respectively cultured in the 10-cm dishes and maintained at 37° C./5% CO2. CHO-K1 cells expressing GNRHR were respectively seeded in a 384-well black-wall, clear-bottom plate at a density of 15,000 cells per well in 20 μl of growth medium about 18 hours prior to the day of experiment and maintained at 37° C./5% CO2. Then, 20 μl of dye loading solution was added into the wells and the plates were subsequently placed into a 37° C. incubator for 60 minutes, followed by a 15 minutes' incubation at room temperature. At last, 10 μl of compounds or control agonist were added into respective wells of the assay plate during reading in FLIPR. The plate containing 5× compound and control agonist solution was placed in FLIPR. Solutions were added into the cell plate automatically at the 20 seconds and the fluorescence signal was monitored for an additional 100 seconds (21 sec to 120 sec.). Data were recorded by ScreenWorks (version 3.1) as FMD files with FLIPR and stored on the GenScript computer network for off-line analysis. Data acquisition and analyses was performed using ScreenWorks (version 3.1) program and exported to Excel. The average value of the first 20 seconds' reading was calculated as the baseline and the relative fluorescent units (ΔRFU) intensity values were calculated by subtracting the average value of baseline from the maximum fluorescent units (21 s to 120 s).
The % Stimulation was calculated with the following equation: % Stimulation=(ΔRFUCompound−ΔRFUBackground)/(ΔRFUAgonist control−ΔRFUBackground)×100
Dose response curves were fitted with four-parameter-logistic-equation by the software GraphPad Prism 6.
Equation: four parameter logistic equation. Y=Bottom+(Top-Bottom)/(1+10^((Log EC50−X)×Hillslope))
X is the logarithm of concentration. Y is the response.

Question: Which Solubility grading [1] does the source give for CCNC(=O)[C@@H]1CCCN1C(=O)[C@H](Cc1ccc(O)cc1)NC(=O)[C@H](Cc1c[nH]c2ccccc12)NC(=O)[C@@H](Cc1cn(Cc2ccccc2)cn1)NC(=O)[C@H](Cc1c[nH]cn1)NC(=O)[C@H](CO)NC(=O)[C@H](Cc1c[nH]c2ccccc12)NC(=O)[C@H](Cc1c[nH]cn1)NC(=O)[C@@H]1CCC(=O)N1 [Compound 63, pGlu-His-Trp-Ser-His-D-Bhi-Trp-Tyr-Pro-NHEt] ([pGlu]HWSH[dHis(τ-Bn)]WYP-NHEt) here?
Answer: 5

Question: And the half-life at 0.2 mg/ml [2]?
Answer: < 96

Question: And the activation at 1 µM (GnRHR)?
Answer: 77%

Question: With CCNC(=O)[C@@H]1CCCN1C(=O)[C@H](Cc1ccc(O)cc1)NC(=O)[C@H](Cc1c[nH]c2ccccc12)NC(=O)[C@@H](Cc1cn(Cc2ccccc2)cn1)NC(=O)[C@H](Cc1ccc(O)cc1)NC(=O)[C@H](CO)NC(=O)[C@H](Cc1c[nH]c2ccccc12)NC(=O)[C@H](Cc1c[nH]cn1)NC(=O)[C@@H]1CCC(=O)N1 [Compound 62, pGlu-His-Trp-Ser-Tyr-D-Bhi-Trp-Tyr-Pro-NHEt] ([pGlu]HWSY[dHis(τ-Bn)]WYP-NHEt) as the compound, how does the Solubility grading [1] read?
Answer: 5

Question: And the half-life at 0.2 mg/ml [2]?
Answer: < 96

Question: And the activation at 1 µM (GnRHR)?
Answer: 77%

Question: What does the source list for N=C(N)NCCC[C@H](NC(=O)[C@H](Cc1c[nH]c2ccccc12)NC(=O)[C@@H](Cc1ccc2ccccc2c1)NC(=O)[C@H](Cc1ccc(O)cc1)NC(=O)[C@H](CO)NC(=O)[C@H](Cc1c[nH]c2ccccc12)NC(=O)[C@H](Cc1c[nH]cn1)NC(=O)[C@@H]1CCC(=O)N1)C(=O)N1CCC[C@H]1C(=O)NCC(N)=O [Compound 24, pGlu-His-Trp-Ser-Tyr-D-Nal-Trp-Arg-Pro-Gly-amide] ([pGlu]HWSY[d2Nal]WRPG-NH2)?
Answer: Solubility grading [1]: 5; half-life at 0.2 mg/ml [2]: < 96; activation at 1 µM (GnRHR): 87%

Question: What does the source list for CCNC(=O)[C@@H]1CCCN1C(=O)[C@H](Cc1ccc(O)cc1)NC(=O)[C@H](CC(C)C)NC(=O)[C@@H](COC(C)(C)C)NC(=O)[C@H](Cc1ccc(O)cc1)NC(=O)[C@H](CO)NC(=O)[C@H](Cc1c[nH]c2ccccc12)NC(=O)[C@H](Cc1c[nH]cn1)NC(=O)[C@@H]1CCC(=O)N1 [Compound 9, pGlu-His-Trp-Ser-Tyr-D-Ser(tBu)-Leu-Tyr-Pro-NHEt] ([pGlu]HWSY[dS](tBu)LYP-NHEt)?
Answer: Solubility grading [1]: 1; half-life at 0.2 mg/ml [2]: > 96; activation at 1 µM (GnRHR): 78%

Question: Which Solubility grading [1] does the source give for CCNC(=O)[C@@H]1CCCN1C(=O)[C@H](CCCNC(=N)N)NC(=O)[C@H](Cc1c[nH]c2ccccc12)NC(=O)[C@@H](COC(C)(C)C)NC(=O)[C@H](Cc1c[nH]cn1)NC(=O)[C@H](CO)NC(=O)[C@H](Cc1c[nH]c2ccccc12)NC(=O)[C@H](Cc1c[nH]cn1)NC(=O)[C@@H]1CCC(=O)N1 [Compound 10, pGlu-His-Trp-Ser-His-D-Ser(tBu)-Trp-Arg-Pro-NHEt] ([pGlu]HWSH[dS](tBu)WRP-NHEt) here?
Answer: 1

Question: And the half-life at 0.2 mg/ml [2]?
Answer: > 96

Question: And the activation at 1 µM (GnRHR)?
Answer: 81%

Question: For CCNC(=O)[C@@H]1CCCN1C(=O)[C@H](CCCNC(=N)N)NC(=O)[C@H](CC(C)C)NC(=O)[C@@H](COC(C)(C)C)NC(=O)[C@H](Cc1c[nH]cn1)NC(=O)[C@H](CO)NC(=O)[C@H](Cc1c[nH]c2ccccc12)NC(=O)[C@H](Cc1c[nH]cn1)NC(=O)[C@@H]1CCC(=O)N1 [Compound 6, pGlu-His-Trp-Ser-His-D-Ser(tBu)-Leu-Arg-Pro-NHEt] ([pGlu]HWSH[dS](tBu)LRP-NHEt), which Solubility grading [1] is on record?
Answer: 1

Question: What about the half-life at 0.2 mg/ml [2] of the same compound?
Answer: > 96

Question: And the activation at 1 µM (GnRHR)?
Answer: 88%

Question: Which Solubility grading [1] does the source give for CC(C)C[C@H](NC(=O)[C@@H](Cc1ccc2ccccc2c1)NC(=O)[C@H](Cc1c[nH]cn1)NC(=O)[C@H](CO)NC(=O)[C@H](Cc1c[nH]c2ccccc12)NC(=O)[C@H](Cc1c[nH]cn1)NC(=O)[C@@H]1CCC(=O)N1)C(=O)N[C@@H](CCCNC(=N)N)C(=O)N1CCC[C@H]1C(=O)NCC(N)=O [Compound 23, pGlu-His-Trp-Ser-His-D-Nal-Leu-Arg-Pro-Gly-amide] ([pGlu]HWSH[d2Nal]LRPG-NH2) here?
Answer: 1

Question: And the half-life at 0.2 mg/ml [2]?
Answer: > 96

Question: And the activation at 1 µM (GnRHR)?
Answer: 106%

Question: With CCNC(=O)[C@@H]1CCCN1C(=O)[C@H](CCCNC(=N)N)NC(=O)[C@H](CC(C)C)NC(=O)[C@@H](Cc1cn(Cc2ccccc2)cn1)NC(=O)[C@H](Cc1c[nH]cn1)NC(=O)[C@H](CO)NC(=O)[C@H](Cc1c[nH]c2ccccc12)NC(=O)[C@H](Cc1c[nH]cn1)NC(=O)[C@@H]1CCC(=O)N1 [Compound 56, pGlu-His-Trp-Ser-His-D-Bhi-Leu-Arg-Pro-NHEt] ([pGlu]HWSH[dHis(τ-Bn)]LRP-NHEt) as the compound, how does the Solubility grading [1] read?
Answer: 1

Question: What about the half-life at 0.2 mg/ml [2] of the same compound?
Answer: > 96

Question: What about the activation at 1 µM (GnRHR) of the same compound?
Answer: 96%

Question: Which Solubility grading [1] does the source give for CCNC(=O)[C@@H]1CCCN1C(=O)[C@H](CCCNC(=N)N)NC(=O)[C@H](Cc1c[nH]c2ccccc12)NC(=O)[C@@H](CC(C)C)NC(=O)[C@H](Cc1c[nH]cn1)NC(=O)[C@H](CO)NC(=O)[C@H](Cc1c[nH]c2ccccc12)NC(=O)[C@H](Cc1c[nH]cn1)NC(=O)[C@@H]1CCC(=O)N1 [Compound 47, pGlu-His-Trp-Ser-His-D-Leu-Trp-Arg-Pro-NHEt] ([pGlu]HWSH[dL]WRP-NHEt) here?
Answer: 1

Question: What about the half-life at 0.2 mg/ml [2] of the same compound?
Answer: > 96

Question: And the activation at 1 µM (GnRHR)?
Answer: 119%

Question: Which Solubility grading [1] does the source give for CCNC(=O)[C@@H]1CCCN1C(=O)[C@H](Cc1ccc(O)cc1)NC(=O)[C@H](CC(C)C)NC(=O)[C@@H](COC(C)(C)C)NC(=O)[C@H](Cc1c[nH]cn1)NC(=O)[C@H](CO)NC(=O)[C@H](Cc1c[nH]c2ccccc12)NC(=O)[C@H](Cc1c[nH]cn1)NC(=O)[C@@H]1CCC(=O)N1 [Compound 11, pGlu-His-Trp-Ser-His-D-Ser(tBu)-Leu-Tyr-Pro-NHEt] ([pGlu]HWSH[dS](tBu)LYP-NHEt) here?
Answer: 1

Question: What about the half-life at 0.2 mg/ml [2] of the same compound?
Answer: > 96

Question: And the activation at 1 µM (GnRHR)?
Answer: 76%

Question: What does the source list for CCNC(=O)[C@@H]1CCCN1C(=O)[C@H](CCCNC(=N)N)NC(=O)[C@H](Cc1c[nH]c2ccccc12)NC(=O)[C@@H](Cc1cn(Cc2ccccc2)cn1)NC(=O)[C@H](Cc1ccc(O)cc1)NC(=O)[C@H](CO)NC(=O)[C@H](Cc1c[nH]c2ccccc12)NC(=O)[C@H](Cc1c[nH]cn1)NC(=O)[C@@H]1CCC(=O)N1 [Compound 67, pGlu-His-Trp-Ser-Tyr-D-Bhi-Trp-Arg-Pro-NHEt] ([pGlu]HWSY[dHis(τ-Bn)]WRP-NHEt)?
Answer: Solubility grading [1]: 1; half-life at 0.2 mg/ml [2]: < 96; activation at 1 µM (GnRHR): 117%

Question: With NC(=O)CNC(=O)[C@@H]1CCCN1C(=O)[C@H](Cc1ccc(O)cc1)NC(=O)[C@H](Cc1c[nH]c2ccccc12)NC(=O)[C@@H](Cc1c[nH]c2ccccc12)NC(=O)[C@H](Cc1ccc(O)cc1)NC(=O)[C@H](CO)NC(=O)[C@H](Cc1c[nH]c2ccccc12)NC(=O)[C@H](Cc1c[nH]cn1)NC(=O)[C@@H]1CCC(=O)N1 [Compound 64, pGlu-His-Trp-Ser-Tyr-D-Trp-Trp-Tyr-Pro-Gly-amide] ([pGlu]HWSY[dW]WYPG-NH2) as the compound, how does the Solubility grading [1] read?
Answer: 5

Question: And the half-life at 0.2 mg/ml [2]?
Answer: < 96

Question: What about the activation at 1 µM (GnRHR) of the same compound?
Answer: 50%

Question: Which Solubility grading [1] does the source give for CCNC(=O)[C@@H]1CCCN1C(=O)[C@H](CCCNC(=N)N)NC(=O)[C@H](CC(C)C)NC(=O)[C@@H](CC(C)C)NC(=O)[C@H](Cc1c[nH]cn1)NC(=O)[C@H](CO)NC(=O)[C@H](Cc1c[nH]c2ccccc12)NC(=O)[C@H](Cc1c[nH]cn1)NC(=O)[C@@H]1CCC(=O)N1 [Compound 42, pGlu-His-Trp-Ser-His-D-Leu-Leu-Arg-Pro-NHEt] ([pGlu]HWSH[dL]LRP-NHEt) here?
Answer: 1

Question: And the half-life at 0.2 mg/ml [2]?
Answer: > 96

Question: And the activation at 1 µM (GnRHR)?
Answer: 102%

Question: With CCNC(=O)[C@@H]1CCCN1C(=O)[C@H](CCCNC(=N)N)NC(=O)[C@H](CC(C)C)NC(=O)[C@@H](COC(C)(C)C)NC(=O)[C@H](Cc1ccc(O)cc1)NC(=O)[C@H](CO)NC(=O)[C@H](Cc1c[nH]c2ccccc12)NC(=O)[C@H](Cc1cnc[nH]1)NC(=O)[C@@H]1CCC(=O)N1 [Buserelin acetate, reference compound] as the compound, how does the Solubility grading [1] read?
Answer: 1
